Assay results reported in patent publication US8835353B2, “Germination acceleration” (Valent BioSciences Corporation, priority 2007, dated 2014).

Experiments:
[1] = test system: sweet corn (cv. Silver Queen); assay: Pouch study: seed treatment, coleoptile and radicle growth at 10° C.; type: in vivo; conditions: 6BA 10 ppm, pouches at 10° C.
Method: For all seed treatments, 1 ppm active ingredient refers to 1 microgram active ingredient per gram of seed. For these studies, GA3, GA4/7, 6BA, or CPPU were each dispensed into a 15 ml centrifuge tube, and 2.5 ml of de-ionized water was then added to each tube. The solution was mixed on a vortex mixer and 0.25 ml of this solution was then placed in another 50 ml. centrifuge tube along with 10 grams of sweet corn seed (cv. Silver Queen) or field corn (cv. Hybrid 2652) seed and rotated 360° on a Labquake Rotissarie for 10 minutes to ensure proper seed coverage. To simulate commercial seed treatments, the amount of solutions was just sufficient to wet the seeds. […] Pouch studies: A CYG germination pouch was drenched with 17 ml of 10° C. de-ionized water. Three treated seeds were placed in the trough of the germination paper, contained within the pouch. Pouches were placed in a Nalgene plastic container cooled to 10° C. The container was incubated in a 10° C. growth chamber with a 16 hour light cycle for the duration of the study. Seedling coleoptiles and radicles were measured by removing the seedling from the pouch and measuring with a ruler. […] The amount of applied is expressed as ppm or micrograms of compound per gram of seed. […]

[2] = test system: sweet corn (cv. Silver Queen); assay: Pro-Mix study: seed treatment, coleoptile emergence and length at 10° C.; type: in vivo; conditions: ProMix at 10° C.
Method: (§1) For all seed treatments, 1 ppm active ingredient refers to 1 microgram active ingredient per gram of seed. For these studies, GA3, GA4/7, 6BA, or CPPU were each dispensed into a 15 ml centrifuge tube, and 2.5 ml of de-ionized water was then added to each tube. The solution was mixed on a vortex mixer and 0.25 ml of this solution was then placed in another 50 ml. centrifuge tube along with 10 grams of sweet corn seed (cv. Silver Queen) or field corn (cv. Hybrid 2652) seed and rotated 360° on a Labquake Rotissarie for 10 minutes to ensure proper seed coverage. To simulate commercial seed treatments, the amount of solutions was just sufficient to wet the seeds. Seeds were dried overnight in weigh boats.
Pro-Mix studies: Pro Mix potting media was cooled to 10° C. and then placed in a 20 inch×10 inch flat to a depth of 5 cm. A trough of twenty seeds/treatment were planted at a depth of 2 cm. Four trays of twenty seeds each were planted per treatment. The trays were incubated in a growth chamber set at 10° C., 16 hour light cycle. Corn emergence counts were made daily.
Sweet corn (cv. Silver Queen) seeds were treated with solutions containing GA4/7, 6BA, or GA4/7 and 6BA, planted into ProMix soil, and held at 10° C. At 22 days after treatment, more seedlings from seeds treated with the combination treatment of GA4/7 and 6BA had emerged than seeds treated with 6BA or GA4/7 alone (Table 2).
Sweet corn (cv. Silver Queen) seeds were treated with solutions containing GA3, 6BA, or GA3 and 6BA, planted into ProMix soil, and held at 10° C.

[3] = test system: hybrid field corn (Hybrid 2652); assay: Petri plate study: seed treatment, coleoptile emergence at 10° C.; type: in vivo; conditions: 6BA 10 ppm, petri plates at 10° C.
Method: For all seed treatments, 1 ppm active ingredient refers to 1 microgram active ingredient per gram of seed. For these studies, GA3, GA4/7, 6BA, or CPPU were each dispensed into a 15 ml centrifuge tube, and 2.5 ml of de-ionized water was then added to each tube. The solution was mixed on a vortex mixer and 0.25 ml of this solution was then placed in another 50 ml. centrifuge tube along with 10 grams of sweet corn seed (cv. Silver Queen) or field corn (cv. Hybrid 2652) seed and rotated 360° on a Labquake Rotissarie for 10 minutes to ensure proper seed coverage. To simulate commercial seed treatments, the amount of solutions was just sufficient to wet the seeds. […] Petri plate studies: Each standard petri plate (100 mm×50 mm) contained 1 blue Anchor germination circle (3¼ inches in diameter) drenched with 7 ml of de-ionized water cooled to 10° C. Each treatment consisted of 4 petri plates of 10 seeds each. After plating, the petri plates were placed in a Nalgene plastic container cooled to 10° C. This in turn was incubated in a 10° C. growth chamber with a 16 hour light cycle for the duration of the study. Counts were made by visually examining each seed for radicle and coleoptile protrusion. Hybrid field corn seeds (cv. Hybrid 2652) were treated with solutions containing GA4/7 or 6BA or combinations of GA4/7 and 6BA, plated onto wetted paper in a petri plate, and held at 10° C.

[4] = test system: seedlings; assay: Preliminary studies: seedling quality and radicle growth after seed treatment; type: in vivo, corn; conditions: high rates of 6BA (>10 ppm)
[5] = test system: sweet corn (cv. Silver Queen); assay: Petri plate study: seed treatment, coleoptile emergence at 10° C.; type: in vivo; conditions: petri plates at 10° C.
Method: as §1
Petri plate studies: Each standard petri plate (100 mm×50 mm) contained 1 blue Anchor germination circle (3¼ inches in diameter) drenched with 7 ml of de-ionized water cooled to 10° C. Each treatment consisted of 4 petri plates of 10 seeds each. After plating, the petri plates were placed in a Nalgene plastic container cooled to 10° C. This in turn was incubated in a 10° C. growth chamber with a 16 hour light cycle for the duration of the study. Counts were made by visually examining each seed for radicle and coleoptile protrusion. […]

c1ccc(CNc2ncnc3nc[nH]c23)cc1 [6BA, N^6-phenylmethyl-1H-purin-6-amine]
Coleoptile length (cm) at 22 days after treatment [1]: 2.17 cm
Radicle length (cm) at 22 days after treatment [1]: 2.78 cm
Percent coleoptile emergence at 21 days after treatment ([2]; 6BA 10 ppm): 3.7%
Percent coleoptile emergence at 22 days after treatment ([2]; 6BA 10 ppm, 22 days): 6.2%
Coleoptile length above ground (mm) at 32 days after treatment ([2]; 6BA 10 ppm, 32 days): 17.1 mm
Length of the emerged coleoptiles at 32 days after treatment, compared to the control ([2]; 6BA, 32 days): no significant effect compared to the control
Percent coleoptile emergence at 12 days after treatment [3]: 32%
Radicle growth [4]: reduced radicle growth
Seedling quality [4]: substantially reduced seedling quality

O=C(Nc1ccccc1)Nc1ccnc(Cl)c1 [CPPU, 1-(2-chloro-4-pyridyl)-3-phenylurea]
Percent coleoptile emergence at 14 days after treatment ([5]; CPPU 1 ppm): 0%
Percent coleoptile emergence at 14 days after treatment ([5]; CPPU 10 ppm): 4%

C=C1C[C@]23C[C@@]1(O)CC[C@H]2[C@@]12C=C[C@H](O)[C@@](C)(C(=O)O1)[C@H]2[C@@H]3C(=O)O [GA3, (1α,2β,4aα,4bβ,10β)-2,4a,7-trihydroxy-1-methyl-8-methylenegibb-3-ene-1,10-dicarboxylic acid 1,4a-lactone]
Percent coleoptile emergence at 21 days after treatment ([2]; GA3 100 ppm): 1.2%
